ChEMBL document CHEMBL1201862, “PubChem BioAssay data set” (2004)
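All cell lines were grown in 96-well plates and treated with compound for 48 hours. GI50: concentration for 50% inhibition of growth.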 Calls of active or inactive are those of the source. Rule as the data show it: active = GI50 up to about 1.1 µM and inactive = higher.

What was measured:
Assay in all cases: growth of human tumour cells (NCI), 48 h
SK-MEL-5 = test system: SK-MEL-5
CCRF-CEM = test system: CCRF-CEM
ACHN = test system: ACHN
EKVX = test system: EKVX
SN12C = test system: SN12C
COLO 205 = test system: COLO 205
NCI-H226 = test system: NCI-H226
786-0 = test system: 786-0
OVCAR-5 = test system: OVCAR-5
Hs-578T = test system: Hs-578T
NCI-H460 = test system: NCI-H460
A498 = test system: A498
UO-31 = test system: UO-31
BT-549 = test system: BT-549
TK-10 = test system: TK-10
HCT-116 = test system: HCT-116
NCI-H23 = test system: NCI-H23
NCI-H522 = test system: NCI-H522
SR = test system: SR
MDA-N = test system: MDA-N

Measured: GI50

COC(=O)C1=C(OC(=O)/C(=C/c2ccccc2)c2ccccc2)C(C(=O)OC)[C@@]2(O)[C@@H](C(=O)OC)[C@H](C)C[C@@H]1[C@@H]2C(=O)OC (stereo partly drawn)
inactive: SK-MEL-5 > 100 µM | CCRF-CEM > 100 µM | ACHN > 100 µM | EKVX > 100 µM | SN12C > 100 µM | COLO 205 > 100 µM | NCI-H226 > 100 µM | 786-0 > 100 µM | OVCAR-5 > 100 µM | Hs-578T > 100 µM | NCI-H460 > 100 µM | A498 > 100 µM | UO-31 > 100 µM | BT-549 > 100 µM | TK-10 > 100 µM | HCT-116 > 100 µM | NCI-H23 > 100 µM | NCI-H522 45.4 µM | SR > 100 µM

CCCCCCC1OC23OC1CCC2C(O)CCC3O (stereo not drawn)
inactive: SK-MEL-5 > 100 µM | ACHN 97.7 µM | EKVX > 100 µM | SN12C > 100 µM | COLO 205 > 100 µM | NCI-H226 > 100 µM | 786-0 > 100 µM | OVCAR-5 > 100 µM | Hs-578T > 100 µM | NCI-H460 > 100 µM | A498 > 100 µM | UO-31 > 100 µM | BT-549 > 100 µM | TK-10 > 100 µM | HCT-116 > 100 µM | NCI-H23 > 100 µM | NCI-H522 > 100 µM | SR > 100 µM

O=C1OCC(c2ccc(Cl)cc2)=C1Cl
inactive: SK-MEL-5 17.1 µM | CCRF-CEM 29.2 µM | ACHN 42.1 µM | EKVX 28.8 µM | SN12C 26.7 µM | COLO 205 24.4 µM | NCI-H226 55.8 µM | 786-0 17.7 µM | OVCAR-5 22.3 µM | Hs-578T 45.8 µM | NCI-H460 17.8 µM | A498 82 µM | UO-31 18.1 µM | BT-549 29.2 µM | TK-10 28.3 µM | HCT-116 13.9 µM | NCI-H23 19.1 µM | NCI-H522 18.5 µM | SR 16.7 µM

O=S(=O)(N/C(=N\O)Nc1ccc(Cl)cc1)c1cc(C(F)(F)F)cc(C(F)(F)F)c1
inactive: SK-MEL-5 18 µM | CCRF-CEM 40.7 µM | ACHN 17.3 µM | EKVX 16.6 µM | SN12C 17.5 µM | COLO 205 18.6 µM | MDA-N 21 µM | NCI-H226 19.1 µM | 786-0 19.3 µM | OVCAR-5 16.3 µM | Hs-578T 23 µM | NCI-H460 26.4 µM | BT-549 18.7 µM | TK-10 19.2 µM | HCT-116 17.5 µM | NCI-H23 19.9 µM | NCI-H522 18.9 µM
